Measurements taken from ChEMBL document CHEMBL4138174, “Design and synthesis of novel C14-urea-tetrandrine derivatives with potent anti-cancer activity” (Eur J Med Chem, 2018).

Assays:
Type in all cases: functional, cell-based
K562 = test: Cytotoxicity against human K562 cells assessed as reduction in cell viability after 48 hrs by MTT assay
HEL = test: Cytotoxicity against human HEL cells assessed as reduction in cell viability after 48 hrs by MTT assay
PC-3 = test: Cytotoxicity against human PC3 cells assessed as reduction in cell viability after 48 hrs by MTT assay
MDA-MB-231 = test: Cytotoxicity against human MDA-MB-231 cells assessed as reduction in cell viability after 48 hrs by MTT assay
[1] = Cytotoxicity against human WM9 cells assessed as reduction in cell viability after 48 hrs by MTT assay

| SMILES | IC50 (K562; k562) [µM] | IC50 (HEL; hel) [µM] | IC50 (PC-3; pc-3) [µM] | IC50 (MDA-MB-231; mda-mb-231) [µM] | IC50 [1] [µM] | IC50 (K562; Homo sapiens, K562, 48 h) [µM] | IC50 (HEL; Homo sapiens, HEL, 48 h) [µM] | IC50 (MDA-MB-231; Homo sapiens, MDA-MB-231, 48 h) [µM] | IC50 ([1]; Homo sapiens, WM9, 48 h) [µM] | IC50 (PC-3; Homo sapiens, PC-3, 48 h) [µM] |
| --- | --- | --- | --- | --- | --- | --- | --- | --- | --- | --- |
| COc1cc(NC(=S)Nc2ccc(F)cc2)c2cc1Oc1ccc(cc1)C[C@H]1c3cc(c(OC)cc3CCN1C)Oc1c(OC)c(OC)cc3c1[C@H](C2)N(C)CC3 | 0.88 | 1.38 | 0.33 | 1.56 | 1.63 | – | – | – | – | – |
| CCCCNC(=S)Nc1cc(OC)c2cc1C[C@H]1c3c(cc(OC)c(OC)c3Oc3cc4c(cc3OC)CCN(C)[C@H]4Cc3ccc(cc3)O2)CCN1C [listing 1 of 2 here] | – | – | 3.03 | – | – | 2.39 | 3.68 | 5.66 | 4.27 | – |
| O=c1[nH]cc(F)c(=O)[nH]1 [FLUOROURACIL] | – | – | – | – | – | 9.49 | 16 | 17.7 | 15.8 | 19.9 |
| COc1cc(NC(=O)Nc2ccc(F)cc2)c2cc1Oc1ccc(cc1)C[C@H]1c3cc(c(OC)cc3CCN1C)Oc1c(OC)c(OC)cc3c1[C@H](C2)N(C)CC3 [listing 1 of 2 here] | 0.93 | 2.58 | 0.77 | 3.06 | 3.49 | – | – | – | – | – |
| COc1cc(NC(=O)Nc2ccc(F)cc2)c2cc1Oc1ccc(cc1)C[C@H]1c3cc(c(OC)cc3CCN1C)Oc1c(OC)c(OC)cc3c1[C@H](C2)N(C)CC3 [listing 2 of 2 here] | – | – | 2.07 | – | – | 1.81 | 4.46 | 5.02 | 4.19 | – |
| COc1cc(NC(=O)Nc2ccc(C(F)(F)F)cc2)c2cc1Oc1ccc(cc1)C[C@H]1c3cc(c(OC)cc3CCN1C)Oc1c(OC)c(OC)cc3c1[C@H](C2)N(C)CC3 | – | – | – | – | – | 1.74 | 4.74 | 5.35 | 4.15 | 5.2 |
| CCNC(=O)Nc1cc(OC)c2cc1C[C@H]1c3c(cc(OC)c(OC)c3Oc3cc4c(cc3OC)CCN(C)[C@H]4Cc3ccc(cc3)O2)CCN1C | – | – | – | – | – | 3.2 | 4.02 | 5.83 | 2.31 | 0.98 |
| COc1ccc2cc1Oc1ccc(cc1)C[C@H]1c3cc(c(OC)cc3CCN1C)Oc1c(OC)c(OC)cc3c1[C@H](C2)N(C)CC3 | 8.87 | 10.1 | 4.45 | 13.6 | 7.39 | – | – | – | – | – |
| CCCCNC(=O)Nc1cc(OC)c2cc1C[C@H]1c3c(cc(OC)c(OC)c3Oc3cc4c(cc3OC)CCN(C)[C@H]4Cc3ccc(cc3)O2)CCN1C [listing 1 of 2 here] | 2.77 | 2.67 | 0.68 | 5.28 | 3.66 | – | – | – | – | – |
| COc1cc(NC(=O)Nc2cccc(C)c2)c2cc1Oc1ccc(cc1)C[C@H]1c3cc(c(OC)cc3CCN1C)Oc1c(OC)c(OC)cc3c1[C@H](C2)N(C)CC3 | – | – | – | – | – | 2.15 | 4.86 | 10.4 | 5.07 | 3.15 |
| COc1cc(NC(=O)NC(C)(C)C)c2cc1Oc1ccc(cc1)C[C@H]1c3cc(c(OC)cc3CCN1C)Oc1c(OC)c(OC)cc3c1[C@H](C2)N(C)CC3 | – | – | – | – | – | 4.89 | 11.9 | 12.6 | 5.37 | 2.97 |
| COc1cc(NC(=O)Nc2cccc(Cl)c2)c2cc1Oc1ccc(cc1)C[C@H]1c3cc(c(OC)cc3CCN1C)Oc1c(OC)c(OC)cc3c1[C@H](C2)N(C)CC3 | – | – | – | – | – | 2.02 | 6.47 | 9.06 | 3.16 | 4.54 |
| COc1ccc(NC(=S)Nc2cc(OC)c3cc2C[C@H]2c4c(cc(OC)c(OC)c4Oc4cc5c(cc4OC)CCN(C)[C@H]5Cc4ccc(cc4)O3)CCN2C)cc1 | – | – | – | – | – | 2.69 | 7.38 | 7.4 | 5.4 | 5.27 |
| COc1cc(NC(=S)Nc2ccc(Cl)cc2)c2cc1Oc1ccc(cc1)C[C@H]1c3cc(c(OC)cc3CCN1C)Oc1c(OC)c(OC)cc3c1[C@H](C2)N(C)CC3 | – | – | – | – | – | 2.43 | 7.18 | 4.35 | 6.93 | 6.08 |
| CCCCNC(=S)Nc1cc(OC)c2cc1C[C@H]1c3c(cc(OC)c(OC)c3Oc3cc4c(cc3OC)CCN(C)[C@H]4Cc3ccc(cc3)O2)CCN1C [listing 2 of 2 here] | 2.02 | 1.96 | 1.05 | 3.24 | 2.84 | – | – | – | – | – |
| COc1cc(NC(=O)N2CCN(S(C)(=O)=O)C2=O)c2cc1Oc1ccc(cc1)C[C@H]1c3cc(c(OC)cc3CCN1C)Oc1c(OC)c(OC)cc3c1[C@H](C2)N(C)CC3 | – | – | – | – | – | 3.06 | 5.51 | 4.33 | 3.76 | 2.17 |
| COc1cc(NC(=O)Nc2ccc([N+](=O)[O-])cc2)c2cc1Oc1ccc(cc1)C[C@H]1c3cc(c(OC)cc3CCN1C)Oc1c(OC)c(OC)cc3c1[C@H](C2)N(C)CC3 | – | – | – | – | – | 1.84 | 6.54 | 5.12 | 4.65 | 6.85 |
| COc1cc(NC(=O)N2CCOCC2)c2cc1Oc1ccc(cc1)C[C@H]1c3cc(c(OC)cc3CCN1C)Oc1c(OC)c(OC)cc3c1[C@H](C2)N(C)CC3 | – | – | – | – | – | 4.33 | 4.67 | 7.29 | 5.54 | 3.78 |

| SMILES | IC50 (K562; k562) [µM] | IC50 (HEL; hel) [µM] | IC50 (PC-3; pc-3) [µM] | IC50 (MDA-MB-231; mda-mb-231) [µM] | IC50 [1] [µM] | IC50 (K562; Homo sapiens, K562, 48 h) [µM] | IC50 (HEL; Homo sapiens, HEL, 48 h) [µM] | IC50 (MDA-MB-231; Homo sapiens, MDA-MB-231, 48 h) [µM] | IC50 ([1]; Homo sapiens, WM9, 48 h) [µM] | IC50 (PC-3; Homo sapiens, PC-3, 48 h) [µM] |
| --- | --- | --- | --- | --- | --- | --- | --- | --- | --- | --- |
| COc1cc(NC(=O)NCc2ccccc2)c2cc1Oc1ccc(cc1)C[C@H]1c3cc(c(OC)cc3CCN1C)Oc1c(OC)c(OC)cc3c1[C@H](C2)N(C)CC3 | – | – | – | – | – | 4.59 | 8.02 | 6.99 | 6.14 | 5.73 |
| CNC(=O)Nc1cc(OC)c2cc1C[C@H]1c3c(cc(OC)c(OC)c3Oc3cc4c(cc3OC)CCN(C)[C@H]4Cc3ccc(cc3)O2)CCN1C | – | – | – | – | – | 9.21 | 9.42 | 14.5 | 3.09 | 1.71 |
| C=C(C)C(=O)OCCNC(=O)Nc1cc(OC)c2cc1C[C@H]1c3c(cc(OC)c(OC)c3Oc3cc4c(cc3OC)CCN(C)[C@H]4Cc3ccc(cc3)O2)CCN1C | – | – | – | – | – | 8.01 | 12.3 | 15.8 | 1.83 | 7.82 |
| COc1cc(NC(=S)Nc2ccc(C)cc2)c2cc1Oc1ccc(cc1)C[C@H]1c3cc(c(OC)cc3CCN1C)Oc1c(OC)c(OC)cc3c1[C@H](C2)N(C)CC3 | – | – | – | – | – | 2.23 | 6.04 | 3.61 | 5.52 | 5.36 |
| COc1cc(NC(=O)N2c3ccccc3Sc3ccccc32)c2cc1Oc1ccc(cc1)C[C@H]1c3cc(c(OC)cc3CCN1C)Oc1c(OC)c(OC)cc3c1[C@H](C2)N(C)CC3 | – | – | – | – | – | 2.49 | 3.32 | 4.14 | 3.21 | 2.95 |
| COc1cc(NC(=O)Nc2ccc(C)cc2)c2cc1Oc1ccc(cc1)C[C@H]1c3cc(c(OC)cc3CCN1C)Oc1c(OC)c(OC)cc3c1[C@H](C2)N(C)CC3 | – | – | – | – | – | 2.89 | 8.08 | 7.28 | 5.13 | 3.85 |
| COc1cc(NC(=O)Nc2cccc3ccccc23)c2cc1Oc1ccc(cc1)C[C@H]1c3cc(c(OC)cc3CCN1C)Oc1c(OC)c(OC)cc3c1[C@H](C2)N(C)CC3 | – | – | – | – | – | 1.97 | 5.21 | 4.61 | 3.93 | 1.31 |
| COc1cc(NC(=O)NC2CCCCC2)c2cc1Oc1ccc(cc1)C[C@H]1c3cc(c(OC)cc3CCN1C)Oc1c(OC)c(OC)cc3c1[C@H](C2)N(C)CC3 | – | – | – | – | – | 5.56 | 14.8 | 16.6 | 10.4 | 3.78 |
| COc1cc(NC(=O)NC2CCCC2)c2cc1Oc1ccc(cc1)C[C@H]1c3cc(c(OC)cc3CCN1C)Oc1c(OC)c(OC)cc3c1[C@H](C2)N(C)CC3 | – | – | – | – | – | 6.42 | 11.6 | 13.2 | 6.45 | 1.76 |
| COc1cc(NC(=O)Nc2ccc(OC(F)(F)F)cc2)c2cc1Oc1ccc(cc1)C[C@H]1c3cc(c(OC)cc3CCN1C)Oc1c(OC)c(OC)cc3c1[C@H](C2)N(C)CC3 | – | – | – | – | – | 1.25 | 4.02 | 4.95 | 3.91 | 0.74 |
| CNC(=S)Nc1cc(OC)c2cc1C[C@H]1c3c(cc(OC)c(OC)c3Oc3cc4c(cc3OC)CCN(C)[C@H]4Cc3ccc(cc3)O2)CCN1C | – | – | – | – | – | 7.35 | 9.19 | 13.6 | 7.37 | 6.43 |
| CCCCNC(=O)Nc1cc(OC)c2cc1C[C@H]1c3c(cc(OC)c(OC)c3Oc3cc4c(cc3OC)CCN(C)[C@H]4Cc3ccc(cc3)O2)CCN1C [listing 2 of 2 here] | 6.88 | – | – | – | – | – | 4.53 | 5.4 | 5.12 | 0.88 |
| COc1cc(NC(=O)NCCCl)c2cc1Oc1ccc(cc1)C[C@H]1c3cc(c(OC)cc3CCN1C)Oc1c(OC)c(OC)cc3c1[C@H](C2)N(C)CC3 | – | – | – | – | – | 6.24 | 9.34 | 13.3 | 4.18 | 4.91 |
| COc1ccc2cc1Oc1ccc(cc1)C[C@H]1c3cc(c(OC)cc3CCN1C)Oc1c(OC)c(OC)cc3c1[C@H](C2)N(C)CC3 [FANCHININ] | – | – | – | – | – | 13.8 | 16.8 | 22 | 11 | 7.87 |
| CCCNC(=O)Nc1cc(OC)c2cc1C[C@H]1c3c(cc(OC)c(OC)c3Oc3cc4c(cc3OC)CCN(C)[C@H]4Cc3ccc(cc3)O2)CCN1C | – | – | – | – | – | 5.09 | 4.79 | 6.31 | 4.83 | 0.73 |
| COc1ccc(NC(=O)Nc2cc(OC)c3cc2C[C@H]2c4c(cc(OC)c(OC)c4Oc4cc5c(cc4OC)CCN(C)[C@H]5Cc4ccc(cc4)O3)CCN2C)cc1 | – | – | – | – | – | 3.22 | 6.65 | 10.2 | 5.01 | 4.67 |
| COc1cc(NC(=S)NC(C)C)c2cc1Oc1ccc(cc1)C[C@H]1c3cc(c(OC)cc3CCN1C)Oc1c(OC)c(OC)cc3c1[C@H](C2)N(C)CC3 | – | – | – | – | – | 3.19 | 4.22 | 5.57 | 3.63 | 2.1 |
